# Experimental data: US20220304992A1, “METHODS OF REJUVENATING AGED TISSUE BY INHIBITING 15-HYDROXYPROSTAGLANDIN DEHYDROGENASE (15-PGDH)” (The Board of Trustees of the Leland Stanford Junior …, priority 2019, published 2022)
# Entries after “also recorded” stand apart in the source; their conditions may differ.
# Experiments:
# aged mice = assay: Muscle mass, plantar flexion tetanic force and treadmill endurance in aged and young C57BL/6 mice; type: in vivo, mouse; conditions: aged (>24 mo) mice, daily i.p. 5 mg/kg, 1 month, 5 mg/kg
# Excerpt: We performed all experiments and protocols in compliance with the institutional guidelines of Stanford University and Administrative Panel on Laboratory Animal Care (APLAC). Mid (18 mo.) and aged (>24 mo.) mice C57BL/6 were obtained the US National Institute on Aging (NIA) for aged muscle studies, and young (2-4 mo.) wild-type C57BL/6 mice from Jackson Laboratory. Mice were maintained in specific-pathogen free housing on a 12-hour dark/light cycle for study duration.
# Time and distance to exhaustion was performed as previously described (4) for SW-treated mice and their controls (FIG. 3A).
# (§1) The peak isometric torque (N·mm) of the ankle plantarflexors was assessed as previously described (8,9). Briefly, the foot of anesthetized mice was placed on a footplate attached to a servomotor (model 300C-LR; Aurora Scientific). Two Pt-Ir electrode needles (Aurora Scientific) were inserted percutaneously were inserted subcutaneously over the tibial nerve, just posterior/posterior-medial to the knee. The ankle joint was secured at a 90° angle. The peak isometric torque was achieved by varying the current delivered to the tibial nerve at a frequency of 200 Hz and a 0.1-ms square wave pulse. We performed three tetanic measurements on each muscle, with 1 min recovery between each measurement. Data were collected with the Aurora Scientific Dynamic Muscle Data Acquisition and Analysis Software.
# (§2) We performed all experiments and protocols in compliance with the institutional guidelines of Stanford University and Administrative Panel on Laboratory Animal Care (APLAC). Middle aged (18-20 mo.) and aged (>24 mo.) mice C57BL/6 were obtained the US National Institute on Aging (NIA) for aged muscle studies, and young (2-4 mo.) wild-type C57BL/6 mice from Jackson Laboratory. INK-ATTAC mice were generated as previously described (1). INK-ATTAC healthspan assessments. INK-ATTAC mice were crossed onto the C57BL6/J genetic background and maintained in specific-pathogen free housing on a 12-hour dark/light cycle for study duration. At 12 months of age, male mice were either utilized for baseline healthspan assessments and terminal muscle harvest or randomized to receive twice-weekly vehicle or AP20187 (2 mg/kg intraperitoneal injection; B/B homodimerizer, Clontech) until assessment and sacrifice at 28 months of age (2). […] Time and distance to exhaustion was performed as previously described (4) for SW-treated mice and their controls. […]
# as §1, with “described (21, 22).” for “described (8,9).”, “percutaneously and” for “percutaneously were inserted”, “a 0.1—ms” for “a 0.1-ms”
# [1] = test system: EP4 receptor on aged myofibers; assay: SW treatment of aged EP4f/f mice with MCK-Cre ablation of EP4 in myofibers; type: in vivo, mouse; conditions: loss of EP4 expression in myofibers, SW one month
# Excerpt: as §2
# The peak isometric torque (N·mm) of the ankle plantarflexors was assessed as previously described (21, 22). […]
smiles,measurement,setting,value
"CCCC[S+]([O-])c1sc2nc(-c3cccs3)cc(-c3ccccc3)c2c1N (centres unmarked) [SW033291, 2-(butylsulfinyl)-4-phenyl-6-(thiophen-2-yl)thieno[2,3-b]pyridin-3-amine]",endurance (time to exhaustion on a treadmill),aged mice,increases; also recorded: significant increase
same,"muscle mass (weight of dissected GA, TA, soleus)",aged mice,increases; also recorded: significant increase
same,muscle strength (plantar flexion tetanic force),aged mice,increases; also recorded: significant increase
same,endurance (time to exhaustion on a treadmill),aged mice; listed as SW,increased
same,"muscle mass (weight of dissected GA, TA, soleus)",aged mice; listed as SW,significant increase
same,muscle strength (plantar flexion tetanic force),aged mice; listed as SW,significant increase
same,beneficial effect on muscle mass,[1],abrogated
same,beneficial effect on muscle strength,[1],abrogated
